Earlier results in patent publication EP4603080A1 (Adocia, priority 2024, dated 2025).

Conditions: read-out: EC50value; potency, WO2022129526 Assay 2, Tables 4b and 4c

In the case of “N-alpha-[(S)-4-Carboxy-4-(19-carboxynonadecanoylamino)butyryl]-[Glu14,Arg17,Pro37]-pramlintide [cagrilintide]”, the EC50 is given as roughly 0.011 nM.
